Measurements taken from patent publication US20010000177A1, “Novel class of thiomorpholino substituted thiazoles” (priority 1999, published 2001).
In brackets after ≈: the same amount, converted by molar mass.

Tests used:
Candida albican = details: Antimicrob. Agents Chemother., (1980), 18(2), 231-9; cited from earlier work
[1] = test system: Candida and Cryptococcus strains (organism not given); assay: Broth microdilution antifungal activity, Table II fourth MIC/MCC column pair; type: cell-based; details: for MIC = Minimum inhibitory concentration (50% Inhibition) / MCC = Minimum cytolytic concentration: fourth column pair of Table II; for MIC = Minimum inhibitory concentration (50% Inhibition): YNB broth pH 7.0; for MCC = Minimum cytolytic concentration: subculture on SDA plate
Procedure: (§1) Organisms: Three strains of Candida (Candida parpsilosis, Candida tropicalis, Candida albicans-ATCC 36082) as well as Cryptococcus neoformans were used for the initial testing. […] All clinical strains used in this study were blood culture isolates from the Clinical Microbiology Laboratory of Harbor-UCLA Medical Center, Torrance, Calif. The organisms were maintained on Sabourahd Dextrose Agar slants at 4° C. For experimentation, singlet suspensions of each organism were prepared by growing the yeast overnight at 27° C. on a rotating drum in yeast-nitrogen base broth (YNB) with amino acids (Difco, Detroit, Mich.), pH 7.0 with 0.05M morpholinepropanesulfonic acid (MOPS). The suspension was then centrifuged and washed twice with 0.85% NaCl. This was followed by sonication of the washed cell suspension for 4s (Branson Sonifier, model 350, Danbury, Conn.). The singlet blastospores were counted in a hemocytometer and adjusted to the desired concentration in 0.85% NaCl.
(§2) Antifungal Activity: The antifungal activity of the compounds and Fluconazole against the Candida and Cryptococcus strains were determined using a modification of a broth microdilution technique. Test compounds were diluted in DMSO to a 1.0 mg/ml ratio then diluted to 64 μg/ml in YNB broth, pH 7.0 with MOPS (Fluconazole was used as the control). This was to provide a working solution of each compound. Using a 96-well plate, wells 1 and 3 through 12 were prepared with YNB broth, […] dilutions of the compound solution were made in wells 2 through 11 (concentration ranges were 64 to 0.125 μg/ml). Well one served as a sterility control and blank for the spectrophotometric assays. Well twelve served as a growth control. The microtiter plates were inoculated with 10 ul in each of well 2 through 11 (final inoculum size was 10^4 organisms/ml). Inoculated plates were incubated for 48 hrs., at 35° C. The MIC values were determined spectrophotometrically by measuring the absorbance at 420 nm (Automatic Microplate Reader, DuPont Instruments, Wilmington, Del.) after agitation of the plates for 2 min with a vortex-mixer (Vorte-Genie 2 Mixer, Scientific Industries, Inc., Bolemia, N.Y.). […] With the turbidity assay this was defined as the lowest drug concentration at which turbidity in the well was <50% of the control (IC50) Minimal Cytolytic Concentrations (MCC) were determined by subculturing all wells from the 96-well plate onto a Sabourahd Dextrose Agar (SDA) plate and incubated for 1 to 2 days at 35° C. and the viability was checked.

[2] = test system: Candida and Cryptococcus strains (organism not given); assay: Broth microdilution antifungal activity, Table II third MIC/MCC column pair; type: cell-based; details: for MCC = Minimum cytolytic concentration: subculture on SDA plate
Procedure: (§3) Organisms: Three strains of Candida (Candida parpsilosis, Candida tropicalis, Candida albicans-ATCC 36082) as well as Cryptococcus neoformans were used for the initial testing. Active compounds were then tested against fluconazole resistant Candida albicans, Candida krusei, Torulopsis glabrata, and Cryptococcus neoformans along with Sporothrix shenkii and Aspergillus flavus in the secondary round of testing. All clinical strains used in this study were blood culture isolates from the Clinical Microbiology Laboratory of Harbor-UCLA Medical Center, Torrance, Calif. The organisms were maintained on Sabourahd Dextrose Agar slants at 4° C. For experimentation, singlet suspensions of each organism were prepared by growing the yeast overnight at 27° C. on a rotating drum in yeast-nitrogen base broth (YNB) with amino acids (Difco, Detroit, Mich.), pH 7.0 with 0.05M morpholinepropanesulfonic acid (MOPS). The suspension was then centrifuged and washed twice with 0.85% NaCl. This was followed by sonication of the washed cell suspension for 4s (Branson Sonifier, model 350, Danbury, Conn.). The singlet blastospores were counted in a hemocytometer and adjusted to the desired concentration in 0.85% NaCl.
as §2

[3] = test system: Candida and Cryptococcus strains (organism not given); assay: Broth microdilution antifungal activity, Table II second MIC/MCC column pair; type: cell-based; details: for MIC = Minimum inhibitory concentration (50% Inhibition) / MCC = Minimum cytolytic concentration: second column pair of Table II; for MIC = Minimum inhibitory concentration (50% Inhibition): YNB broth pH 7.0; for MCC = Minimum cytolytic concentration: subculture on SDA plate
Procedure: as §3, §2

[4] = test system: Candida and Cryptococcus strains (organism not given); assay: Broth microdilution antifungal activity, Table II first MIC/MCC column pair; type: cell-based; details: for MIC = Minimum inhibitory concentration (50% Inhibition) / MCC = Minimum cytolytic concentration: first column pair of Table II; for MIC = Minimum inhibitory concentration (50% Inhibition): YNB broth pH 7.0; for MCC = Minimum cytolytic concentration: subculture on SDA plate
Procedure: as §1, §2

| MIC = Minimum inhibitory concentration (50% Inhibition) ([1]; 48 hrs, 35° C.) [µg/mL] | MIC = Minimum inhibitory concentration (50% Inhibition) ([2]; 48 hrs, 35° C., YNB broth pH 7.0) [µg/mL] | MIC = Minimum inhibitory concentration (50% Inhibition) ([3]; 48 hrs, 35° C.) [µg/mL] | MIC = Minimum inhibitory concentration (50% Inhibition) ([4]; 48 hrs, 35° C.) [µg/mL] | MIC ([1]; Candida, 48 h, pH 7, fourth column pair of Table II, 48 hrs, 35° C., YNB broth pH 7.0, read-out: MIC = Minimum inhibitory concentration (50% Inhibition)) [µg/mL] | MIC ([3]; Candida, 48 h, pH 7, second column pair of Table II, 48 hrs, 35° C., YNB broth pH 7.0, read-out: MIC = Minimum inhibitory concentration (50% Inhibition)) [µg/mL] | MIC ([4]; Candida, 48 h, pH 7, first column pair of Table II, 48 hrs, 35° C., YNB broth pH 7.0, read-out: MIC = Minimum inhibitory concentration (50% Inhibition)) [µg/mL] | Structure (SMILES) | MIC50 (Candida albican) [µg/mL] | MCC = Minimum cytolytic concentration [1] [µg/mL] | MCC = Minimum cytolytic concentration [2] [µg/mL] | MCC = Minimum cytolytic concentration [3] [µg/mL] | MCC = Minimum cytolytic concentration [4] [µg/mL] |
| --- | --- | --- | --- | --- | --- | --- | --- | --- | --- | --- | --- | --- |
|  |  |  |  |  |  |  | N=C(N)c1ccc(-c2nnc(-c3ccc(C(=N)N)cc3)o2)cc1 | > 60 |  |  |  |  |
| 0.25 (≈ 0.808 µM) | 0.5 (≈ 1.62 µM) | 8 (≈ 25.9 µM) | 4 (≈ 12.9 µM) |  |  |  | COc1ccc(-c2nnc(-c3ccc(CN(C)C)cc3)o2)cc1 [Example 9j, 2-(4′-methoxyphenyl)-5-[4″-(dimethylaminomethyl)phenyl]-1,3,4-oxadiazole] |  | 8 | 0.5 | 8 | 32 |
| 0.5 (≈ 1.63 µM) |  | 1.0 (≈ 3.27 µM) | 0.5 (≈ 1.63 µM) | 1 (≈ 3.27 µM) | 0.5 (≈ 1.63 µM) | 0.25 (≈ 0.816 µM) | OC(Cn1cncn1)(Cn1cncn1)c1ccc(F)cc1F [Fluconazole, reference compound] |  | >64 | >64 | >64 | >64 |
